This is an account of results in patent publication US12599554B2, “Pharmaceutical formulations comprising tadalafil” (KYDES PHARMACEUTICALS, LLC, priority 2020, dated 2026).

Series [1] in a line: Solubility of tadalafil in aqueous media and solvents; precipitation on adding water. The series is classed as physicochemical. From the text: Tadalafil is soluble in 2-pyrollidone, but the use of 2-pyrollidone as a solvent is limited by color formation, unpalatable taste, and incompatibility with plastic components of metered-dose delivery systems. […] Compatibility with the pumps was improved with water in an amount of at least 10% weight in volume.

For series [2] the following is noted: cited from earlier work.
For series [3] the following is noted: cited from earlier work. This is another data set of the same source.

For `CN1CC(=O)N2[C@H](c3ccc4c(c3)OCO4)c3[nH]c4ccccc4c3C[C@@H]2C1=O` [Tadalafil, (2R,8R)-2-(1,3-benzodioxol-5-yl)-6-methyl-3,6,17-triazatetracyclo[8.7.0.0^3,8.0^11,16]heptadeca-1(10),11,13,15-tetraene-4,7-dione], the “solubility in 2-pyrollidone” value in series [1] (2-pyrollidone) is on record as “soluble”. Moreover, the “solubility in propylene carbonate” value in series [1] (propylene carbonate) is recorded as “soluble”. Further, in series [2], the “solubility in aqueous media” value is recorded as “insoluble”. Besides, in series [3], the bioavailability in humans was 80%.
